In ChEMBL document CHEMBL1201862, “PubChem BioAssay data set” (2004):
The source made the active and inactive calls.

Columns and labels:
[1] = biological target: T1, Bcl-2-like protein 10 (Homo sapiens, UniProt Q9HD36); assay: displacers of TR3 peptide from Bcl-B, primary screen, selectivity assay for Bfl-1 inhibitor project, biochemical, fluorescence polarization, FITC-TR3 peptide (AID 748);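 further: fluorescence polarization from a fluorescein-labelled TR3 peptide binding purified Bcl-B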
T1 sequence (Q9HD36 whole entry): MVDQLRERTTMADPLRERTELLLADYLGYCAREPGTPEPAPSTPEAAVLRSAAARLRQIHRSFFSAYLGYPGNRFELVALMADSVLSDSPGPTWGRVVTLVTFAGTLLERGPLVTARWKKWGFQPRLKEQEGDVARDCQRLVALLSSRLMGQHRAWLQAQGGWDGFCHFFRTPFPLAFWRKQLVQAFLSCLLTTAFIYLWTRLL

[2] = inhibitors of SNCA 5'UTR-driven reporter translation, confirmation, H4 neuroglioma cells, luminescence (AID 1988); format: functional, cell-based
[3] = test system: HT-1080; assay: cytotoxicity in HT1080 fibrosarcoma cells, cell-based, fluorescence readout (AID 620); format: functional; conditions: Homo sapiens
[4] = biological target: Luciferin 4-monooxygenase (Photinus pyralis, UniProt P08659); assay: Counter Screen for Luciferase-based Assay Positives. [Related pubchem assays: 620, 618, 411 ]
[5] = inhibitors of firefly luciferase expression or activity, dose response, H4 neuroglioma cells, luminescence (AID 1990); format: functional, cell-based
[6] = biological target: T2, Ubiquitin-conjugating enzyme E2 N (Homo sapiens, UniProt P61088); format: functional;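 further: Dose-response confirmation in a TR-FRET assay detecting UBC13-driven polyubiquitin chain formation, inhibition measured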
T2 sequence (P61088 whole entry): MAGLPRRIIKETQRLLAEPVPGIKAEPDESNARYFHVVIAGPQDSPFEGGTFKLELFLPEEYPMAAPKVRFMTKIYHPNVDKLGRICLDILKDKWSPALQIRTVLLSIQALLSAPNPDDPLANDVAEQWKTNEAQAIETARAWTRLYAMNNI

[7] = test system: HEK293; assay: inhibitors of LMP1-driven NF-kB reporter, dose response, cell-based, HEK293, luciferase, cherry-pick (AID 588343); format: functional; conditions: Homo sapiens
[8] = Luminescence Cell-Based Dose Response HTS to Identify Inhibitors of 5'UTR Stem-Loop Driven Prion Protein mRNA Translation in H4 Neuroglioblastoma Cells. [Related pubchem assays: 1827 (Project Summary), 1813 (Primary HTS)]; format: functional
[9] = biological target: Peroxisome proliferator-activated receptor gamma/Nuclear receptor coactivator 1 (Homo sapiens, UniProt P37231); format: functional;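 further: agonist potency as compounds enhance coactivator SRC-1 recruitment to PPARgamma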
[10] = biological target: T3, Corticotropin-releasing factor receptor 2/Corticotropin-releasing factor-binding protein (Homo sapiens, UniProt P24387+Q13324); assay: Dose Response confirmation of uHTS hits for small molecule antagonists of the CRF-binding protein and CRF-R2 receptor complex.; format: functional; conditions: read-out: IC50_Mean
T3 sequence (Q13324 whole entry): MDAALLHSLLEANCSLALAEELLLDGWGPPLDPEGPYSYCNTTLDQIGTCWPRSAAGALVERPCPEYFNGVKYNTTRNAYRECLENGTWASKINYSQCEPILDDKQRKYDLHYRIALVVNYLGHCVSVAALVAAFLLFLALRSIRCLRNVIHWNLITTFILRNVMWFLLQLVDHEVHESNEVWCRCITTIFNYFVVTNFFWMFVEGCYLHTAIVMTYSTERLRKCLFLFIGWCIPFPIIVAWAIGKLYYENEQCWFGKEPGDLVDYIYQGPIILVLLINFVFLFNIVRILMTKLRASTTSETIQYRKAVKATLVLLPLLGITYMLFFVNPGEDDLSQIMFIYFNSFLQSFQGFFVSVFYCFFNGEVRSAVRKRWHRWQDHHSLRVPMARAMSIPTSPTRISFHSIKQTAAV
T3 sequence (P24387 whole entry): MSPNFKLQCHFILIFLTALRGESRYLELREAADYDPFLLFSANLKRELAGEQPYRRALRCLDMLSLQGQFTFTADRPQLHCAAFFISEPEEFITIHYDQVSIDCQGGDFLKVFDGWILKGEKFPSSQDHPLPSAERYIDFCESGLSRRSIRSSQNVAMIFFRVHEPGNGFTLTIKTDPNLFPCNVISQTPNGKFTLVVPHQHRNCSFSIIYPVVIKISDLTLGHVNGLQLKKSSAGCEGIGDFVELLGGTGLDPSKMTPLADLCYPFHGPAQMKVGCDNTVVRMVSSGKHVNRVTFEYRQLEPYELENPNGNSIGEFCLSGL

[11] = biological target: T3, Corticotropin-releasing factor receptor 2/Corticotropin-releasing factor-binding protein; assay: activators of CRF receptor 2 with binding protein – uHTS hits, confirmation (AID 602473); format: functional; conditions: read-out: EC50_Mean
[12] = biological target: Peroxisome proliferator-activated receptor gamma/Nuclear receptor coactivator 2 (Homo sapiens, UniProt P37231); format: functional;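 further: agonist potency for raising coactivator recruitment to the receptor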
[13] = biological target: Peroxisome proliferator-activated receptor gamma/Nuclear receptor coactivator 3 (Homo sapiens, UniProt P37231); format: functional;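 further: agonist potency for raising coactivator recruitment to the receptor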
[14] = biological target: T4, Neuropeptide Y receptor type 1 (Homo sapiens, UniProt P25929); assay: Fluorescence-based counterscreen for agonists of NPY-Y2: cell-based high-throughput dose response assay for agonists of NPY-Y1.; format: functional
T4 sequence (P25929 whole entry): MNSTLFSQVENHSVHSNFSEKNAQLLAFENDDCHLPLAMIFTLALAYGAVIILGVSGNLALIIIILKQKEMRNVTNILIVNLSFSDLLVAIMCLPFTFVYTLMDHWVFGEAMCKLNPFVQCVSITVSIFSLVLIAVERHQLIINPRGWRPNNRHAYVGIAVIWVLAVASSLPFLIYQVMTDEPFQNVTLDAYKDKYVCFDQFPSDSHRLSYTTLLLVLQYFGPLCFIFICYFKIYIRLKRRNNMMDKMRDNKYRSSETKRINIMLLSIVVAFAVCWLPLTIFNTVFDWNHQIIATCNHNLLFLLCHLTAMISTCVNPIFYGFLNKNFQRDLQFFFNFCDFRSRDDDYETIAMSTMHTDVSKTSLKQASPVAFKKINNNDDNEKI

[15] = test system: HEK293; assay: Fluorescence-based counterscreen for potentiators or agonists of NPY-Y2: cell-based high-throughput dose response assay to identify inhibitors of cyclic nucleotide gated ion channel (CNGC) activity. In this assay, the parental HEK293 cell line transfected with a cyclic-nucleotide gated ion channel (CNGC)-based cAMP sensor is used to measure inhibition of isoproterenol-induced CNGC activity by test compound.; format: functional; conditions: Homo sapiens
[16] = biological target: T5, Neuropeptide Y receptor type 2 (Homo sapiens, UniProt P49146); assay: Fluorescence-based cell-based high-throughput dose response assay for agonists of NPY-Y2. [Related pubchem assays: 1703 (Screening assay (CNGC inhibitors).), 1359 (Screening assay (NPY-Y2 potentiators or agonists).), 1304 (Screening assay (NPY-Y1 potentiators or agonists).), 1710 (Screening assay (NPY-Y2 agonists).), 1791 (Summary AID.)]; format: functional
T5 sequence (P49146 whole entry): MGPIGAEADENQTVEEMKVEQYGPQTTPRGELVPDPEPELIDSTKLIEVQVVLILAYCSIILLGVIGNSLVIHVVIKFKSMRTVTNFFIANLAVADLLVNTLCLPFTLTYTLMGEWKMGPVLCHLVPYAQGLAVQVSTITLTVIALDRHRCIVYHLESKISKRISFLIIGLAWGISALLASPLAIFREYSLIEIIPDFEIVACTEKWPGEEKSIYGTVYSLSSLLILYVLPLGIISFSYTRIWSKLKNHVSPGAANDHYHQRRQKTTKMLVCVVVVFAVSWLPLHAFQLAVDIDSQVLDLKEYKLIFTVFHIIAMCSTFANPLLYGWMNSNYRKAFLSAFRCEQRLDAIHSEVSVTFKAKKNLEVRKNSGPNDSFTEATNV

[17] = THP-1 cell cytotoxicity, dose response, cytotoxicity control for non-replicating M. tuberculosis project (AID 489025); format: functional
[18] = HepG2 cell cytotoxicity, dose response, cytotoxicity control for non-replicating M. tuberculosis project (AID 489018); format: functional; conditions: Mycobacterium tuberculosis
[19] = biological target: Voltage-dependent T-type calcium channel subunit alpha-1H (Homo sapiens, UniProt O95180); format: functional;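 further: channel activity triggered by adding a high calcium stimulation buffer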
[20] = cells; format: functional
[21] = Vero E6 cell cytotoxicity, dose response, cytotoxicity control for non-replicating M. tuberculosis project, secondary assay (AID 492998); format: functional, VeroE6; conditions: Vero C1008
[22] = cytotoxicity in HEK-293T cells, dose response, cytotoxicity control for BCR NF-kB inhibitor project, luminescence, B-cell screen hits (AID 489021); format: functional, cell-based;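 further: HEK-293T cells carrying an NF-kB luciferase reporter; cells exposed to compound for about 14 hours before viability readout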
[23] = biological target: G-protein coupled receptor 55 (Homo sapiens, UniProt Q9Y2T6); assay: GPR55 agonists via beta-arrestin recruitment, primary screen, imaging, U2OS cells, beta-arrestin-GFP redistribution (AID 1961); format: functional
[24] = biological target: NS3 (Hepatitis C virus, UniProt A3EZJ3); assay: PubChem AID 2173; parameters: species or system Hepacivirus hominis

Chain of G-protein coupled receptor 55 (Q9Y2T6 whole entry): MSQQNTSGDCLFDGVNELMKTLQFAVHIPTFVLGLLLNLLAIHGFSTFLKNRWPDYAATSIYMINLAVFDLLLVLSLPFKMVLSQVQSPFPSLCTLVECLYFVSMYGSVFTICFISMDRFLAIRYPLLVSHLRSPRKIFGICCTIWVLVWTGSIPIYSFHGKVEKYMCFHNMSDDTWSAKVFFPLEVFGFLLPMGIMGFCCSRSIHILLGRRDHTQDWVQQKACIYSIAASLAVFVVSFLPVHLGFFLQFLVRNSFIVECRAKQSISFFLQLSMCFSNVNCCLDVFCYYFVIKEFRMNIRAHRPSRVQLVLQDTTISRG
Chain of Peroxisome proliferator-activated receptor gamma/Nuclear receptor coactivator 2 (P37231 whole entry): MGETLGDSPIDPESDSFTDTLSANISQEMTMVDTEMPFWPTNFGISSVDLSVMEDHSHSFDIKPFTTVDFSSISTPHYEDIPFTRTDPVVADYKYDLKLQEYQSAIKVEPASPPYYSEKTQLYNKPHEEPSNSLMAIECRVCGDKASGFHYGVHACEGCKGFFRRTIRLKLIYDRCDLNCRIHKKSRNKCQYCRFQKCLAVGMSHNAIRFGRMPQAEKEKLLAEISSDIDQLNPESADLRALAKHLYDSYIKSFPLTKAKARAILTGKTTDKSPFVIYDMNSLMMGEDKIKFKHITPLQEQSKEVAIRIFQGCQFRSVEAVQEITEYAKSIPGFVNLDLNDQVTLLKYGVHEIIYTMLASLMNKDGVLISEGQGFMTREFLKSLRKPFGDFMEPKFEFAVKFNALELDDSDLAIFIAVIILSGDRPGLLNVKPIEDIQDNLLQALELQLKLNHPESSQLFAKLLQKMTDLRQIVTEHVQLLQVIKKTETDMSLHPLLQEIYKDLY
Chain of Peroxisome proliferator-activated receptor gamma/Nuclear receptor coactivator 2 (Q15596 whole entry, further chain): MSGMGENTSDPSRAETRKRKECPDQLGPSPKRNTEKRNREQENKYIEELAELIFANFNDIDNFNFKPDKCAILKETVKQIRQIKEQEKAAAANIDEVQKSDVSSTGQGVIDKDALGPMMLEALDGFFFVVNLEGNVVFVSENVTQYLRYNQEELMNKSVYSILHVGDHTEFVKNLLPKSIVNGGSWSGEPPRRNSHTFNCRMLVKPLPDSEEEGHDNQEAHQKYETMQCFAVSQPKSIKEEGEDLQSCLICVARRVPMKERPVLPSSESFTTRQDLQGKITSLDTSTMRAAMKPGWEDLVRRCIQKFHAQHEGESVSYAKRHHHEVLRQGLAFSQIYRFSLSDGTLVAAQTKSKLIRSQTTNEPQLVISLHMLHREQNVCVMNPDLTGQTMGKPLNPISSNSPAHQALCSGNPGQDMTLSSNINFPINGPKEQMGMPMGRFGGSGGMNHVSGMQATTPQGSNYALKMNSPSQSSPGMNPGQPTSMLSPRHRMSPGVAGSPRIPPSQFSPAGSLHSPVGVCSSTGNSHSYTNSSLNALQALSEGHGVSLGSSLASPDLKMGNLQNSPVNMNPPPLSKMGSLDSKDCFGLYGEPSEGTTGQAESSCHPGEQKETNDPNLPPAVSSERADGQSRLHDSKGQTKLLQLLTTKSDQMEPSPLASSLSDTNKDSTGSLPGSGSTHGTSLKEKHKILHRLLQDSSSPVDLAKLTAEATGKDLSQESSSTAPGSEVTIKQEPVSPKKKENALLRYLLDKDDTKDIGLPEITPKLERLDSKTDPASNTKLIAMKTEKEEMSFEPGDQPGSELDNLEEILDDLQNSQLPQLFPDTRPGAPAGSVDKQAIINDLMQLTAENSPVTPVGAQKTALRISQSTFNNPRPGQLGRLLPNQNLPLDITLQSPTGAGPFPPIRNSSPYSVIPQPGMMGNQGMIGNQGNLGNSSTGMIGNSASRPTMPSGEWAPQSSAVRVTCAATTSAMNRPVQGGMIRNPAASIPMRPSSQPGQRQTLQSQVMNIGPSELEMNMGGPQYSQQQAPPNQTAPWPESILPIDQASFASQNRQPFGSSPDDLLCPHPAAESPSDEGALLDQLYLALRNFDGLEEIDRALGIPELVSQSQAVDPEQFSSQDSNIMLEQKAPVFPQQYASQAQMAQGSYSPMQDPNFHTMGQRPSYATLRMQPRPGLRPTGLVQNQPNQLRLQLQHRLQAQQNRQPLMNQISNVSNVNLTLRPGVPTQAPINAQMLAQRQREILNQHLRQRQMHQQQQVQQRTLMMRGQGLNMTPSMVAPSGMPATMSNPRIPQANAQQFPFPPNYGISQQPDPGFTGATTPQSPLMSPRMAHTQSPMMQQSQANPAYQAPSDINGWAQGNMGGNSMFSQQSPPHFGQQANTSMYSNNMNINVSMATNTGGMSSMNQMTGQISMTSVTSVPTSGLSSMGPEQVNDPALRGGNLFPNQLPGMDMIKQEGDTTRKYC
Chain of Peroxisome proliferator-activated receptor gamma/Nuclear receptor coactivator 3 (P37231 whole entry): as the sequence (P37231 whole entry) above
Chain of Peroxisome proliferator-activated receptor gamma/Nuclear receptor coactivator 3 (Q9Y6Q9 whole entry, further chain): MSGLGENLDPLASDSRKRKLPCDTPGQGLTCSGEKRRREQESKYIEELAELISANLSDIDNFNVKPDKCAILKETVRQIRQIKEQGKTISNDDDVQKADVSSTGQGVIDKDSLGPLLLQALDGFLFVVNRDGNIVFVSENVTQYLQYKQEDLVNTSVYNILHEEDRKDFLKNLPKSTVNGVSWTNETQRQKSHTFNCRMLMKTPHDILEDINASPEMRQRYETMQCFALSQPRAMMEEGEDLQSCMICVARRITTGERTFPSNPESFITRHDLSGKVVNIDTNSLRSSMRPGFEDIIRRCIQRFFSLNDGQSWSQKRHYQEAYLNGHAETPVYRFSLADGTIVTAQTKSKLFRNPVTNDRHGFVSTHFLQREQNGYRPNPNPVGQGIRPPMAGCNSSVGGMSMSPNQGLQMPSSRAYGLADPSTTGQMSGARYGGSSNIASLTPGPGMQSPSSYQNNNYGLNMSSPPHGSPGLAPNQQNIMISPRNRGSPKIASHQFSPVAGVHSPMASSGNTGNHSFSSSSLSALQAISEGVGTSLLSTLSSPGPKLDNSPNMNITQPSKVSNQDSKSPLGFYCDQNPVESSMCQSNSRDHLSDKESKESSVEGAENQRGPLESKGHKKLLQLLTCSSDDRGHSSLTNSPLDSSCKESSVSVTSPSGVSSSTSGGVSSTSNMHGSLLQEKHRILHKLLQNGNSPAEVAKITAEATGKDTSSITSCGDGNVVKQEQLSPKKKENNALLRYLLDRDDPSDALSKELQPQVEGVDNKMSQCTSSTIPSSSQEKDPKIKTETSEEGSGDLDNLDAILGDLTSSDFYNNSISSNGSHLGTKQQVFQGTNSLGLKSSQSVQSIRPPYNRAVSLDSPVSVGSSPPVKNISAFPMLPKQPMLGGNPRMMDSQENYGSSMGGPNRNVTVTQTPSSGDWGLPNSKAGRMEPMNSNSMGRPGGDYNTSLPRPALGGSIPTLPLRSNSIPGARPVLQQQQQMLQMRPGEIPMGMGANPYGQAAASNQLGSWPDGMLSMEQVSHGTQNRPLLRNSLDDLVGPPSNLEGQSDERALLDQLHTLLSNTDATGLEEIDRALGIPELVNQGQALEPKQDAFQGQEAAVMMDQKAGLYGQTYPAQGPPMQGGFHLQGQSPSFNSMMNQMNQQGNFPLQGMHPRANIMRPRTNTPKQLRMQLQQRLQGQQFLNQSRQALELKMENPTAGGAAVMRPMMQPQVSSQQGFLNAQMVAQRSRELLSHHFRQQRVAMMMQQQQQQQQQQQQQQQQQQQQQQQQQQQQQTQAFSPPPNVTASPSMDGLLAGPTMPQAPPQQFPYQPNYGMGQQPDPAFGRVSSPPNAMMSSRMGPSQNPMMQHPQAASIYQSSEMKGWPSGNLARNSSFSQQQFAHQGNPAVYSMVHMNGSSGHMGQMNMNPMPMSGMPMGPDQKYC
Chain of Luciferin 4-monooxygenase (P08659 whole entry): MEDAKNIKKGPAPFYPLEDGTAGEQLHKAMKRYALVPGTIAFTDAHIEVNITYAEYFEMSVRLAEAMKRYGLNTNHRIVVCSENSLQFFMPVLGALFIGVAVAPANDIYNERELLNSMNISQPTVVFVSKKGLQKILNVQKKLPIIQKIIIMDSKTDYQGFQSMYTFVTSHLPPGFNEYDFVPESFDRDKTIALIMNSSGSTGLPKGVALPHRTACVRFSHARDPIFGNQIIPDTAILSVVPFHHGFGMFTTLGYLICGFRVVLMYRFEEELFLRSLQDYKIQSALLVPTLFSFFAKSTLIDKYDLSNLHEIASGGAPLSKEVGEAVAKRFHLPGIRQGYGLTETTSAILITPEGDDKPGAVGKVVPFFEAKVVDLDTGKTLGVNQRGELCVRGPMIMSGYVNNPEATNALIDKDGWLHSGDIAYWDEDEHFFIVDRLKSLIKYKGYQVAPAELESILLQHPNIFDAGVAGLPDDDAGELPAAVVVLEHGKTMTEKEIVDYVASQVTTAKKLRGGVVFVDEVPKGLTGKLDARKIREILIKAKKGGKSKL

In the case of `O=C(COC(=O)Cc1ccccc1)Nc1ncc(Cl)cc1Cl`, the IC50 [1] is reported as 91.5 µM (inactive).
In the case of `COc1ccc(C(=O)Nn2c(SCC(=O)NCc3ccco3)nc3ccccc3c2=O)cc1`, the EC50 [2] is reported as 8.3 µM (active), the EC50 [3] is reported as > 50 µM (not active) and the EC50 [4] is reported as 0.44 µM (active). For the same compound, the EC50 [5] was 8.65 µM (inconclusive), the IC50 [6] was > 20 µM (inactive) and the AC50 [7] was 2.48 µM (active). The EC50 [8] was 8.39 µM (active).
In the case of `COc1ccc(NS(=O)(=O)c2c(C)n(C)c(=O)n(C)c2=O)cc1OC`, the EC50 [9] is reported as > 79.4 µM (not active), the IC50 [10] is reported as > 47.1 µM (inactive) and the EC50 [11] is reported as > 53 µM (inactive). For the same compound, the EC50 [12] was > 79.4 µM (not active) and the EC50 [13] was > 79.4 µM (not active).
For `O=C(Nc1ccccc1Cl)c1c(F)c(F)c(F)c(F)c1F`, the EC50 [14] was > 35.4 µM (not active), the EC50 [15] was > 35.4 µM (not active) and the EC50 [16] was > 35.4 µM (not active).
In the case of `CCC1CCCCN1S(=O)(=O)c1ccc(C(=O)Nc2nnc(-c3cccs3)o2)cc1` (stereo not drawn), the CC50 [17] is reported as 3.49 µM (active), the CC50 [18] is reported as 9.09 µM (active) and the EC50 [19] is reported as 1.44 µM (active). For the same compound, the IC50 [20] was 6.49 µM (active) and the CC50 [21] was 2.43 µM (active).
For `c1coc(C2Nc3cccc4cccc(c34)N2)c1`, the EC50 [2] was > 120 µM (not active), the EC50 [5] was > 120 µM (not active) and the EC50 [8] was > 120 µM (not active). For the same compound, the IC50 [1] was 42.8 µM (active).
With `COc1cccc(-c2noc(CCC(=O)NCCc3ccccc3)n2)c1` the IC50 [22] was > 80 µM (inactive).
For `Cc1ccc2c(Cl)cc(Cl)c(OCC(=O)Nc3ccc(C)c(S(=O)(=O)N(C)C)c3)c2n1`, the EC50 [23] was > 32 µM (inactive).
For `O=C1/C(=C/C=C/C=C/Nc2ccccc2)SC(=S)N1Cc1ccccc1`, the IC50 [24] was 17.3 µM (not active).
